# Test results as given in patent US20250375540A1, “FIBROBLAST ACTIVATION PROTEIN TARGETING PRECURSOR AND RADIOTRACER” (ITM ONCOLOGICS GMBH, priority 2022, published 2025).
# What was measured:
# [1] = molecular target: T1, FAP (Homo sapiens, UniProt Q12884); conditions: background statement; cited from earlier work
# T1 sequence (Q12884 1-760): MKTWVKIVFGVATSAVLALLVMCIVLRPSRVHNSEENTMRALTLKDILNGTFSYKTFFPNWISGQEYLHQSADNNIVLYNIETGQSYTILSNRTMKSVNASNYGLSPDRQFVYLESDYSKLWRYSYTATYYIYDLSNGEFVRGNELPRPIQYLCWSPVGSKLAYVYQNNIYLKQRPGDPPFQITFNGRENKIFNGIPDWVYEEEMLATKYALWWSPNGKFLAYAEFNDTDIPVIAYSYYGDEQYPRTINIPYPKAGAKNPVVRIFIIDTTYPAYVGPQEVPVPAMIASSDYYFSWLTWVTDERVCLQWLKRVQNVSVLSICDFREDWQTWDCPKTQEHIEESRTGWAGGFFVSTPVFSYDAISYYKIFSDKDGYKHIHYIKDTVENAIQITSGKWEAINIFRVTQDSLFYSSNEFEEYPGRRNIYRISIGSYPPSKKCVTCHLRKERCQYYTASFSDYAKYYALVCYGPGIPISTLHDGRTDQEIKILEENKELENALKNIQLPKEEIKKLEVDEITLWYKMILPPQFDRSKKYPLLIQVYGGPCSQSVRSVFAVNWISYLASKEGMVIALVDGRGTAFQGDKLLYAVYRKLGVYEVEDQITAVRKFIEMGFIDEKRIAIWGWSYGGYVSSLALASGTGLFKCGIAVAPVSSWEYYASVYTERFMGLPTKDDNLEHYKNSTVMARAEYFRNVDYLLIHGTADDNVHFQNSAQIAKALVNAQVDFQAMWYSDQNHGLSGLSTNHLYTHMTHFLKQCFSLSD
# [2] = molecular target: DPP4 (Homo sapiens, UniProt P27487); conditions: background statement; cited from earlier work
# [3] = molecular target: T2, PREP (Homo sapiens, UniProt P48147); experiment: Affinity to PREP (IC50); format: biochemical; conditions: for binding to off-target PREP, in words: compared with reference (F) and (G)
# T2 sequence (P48147 1-710): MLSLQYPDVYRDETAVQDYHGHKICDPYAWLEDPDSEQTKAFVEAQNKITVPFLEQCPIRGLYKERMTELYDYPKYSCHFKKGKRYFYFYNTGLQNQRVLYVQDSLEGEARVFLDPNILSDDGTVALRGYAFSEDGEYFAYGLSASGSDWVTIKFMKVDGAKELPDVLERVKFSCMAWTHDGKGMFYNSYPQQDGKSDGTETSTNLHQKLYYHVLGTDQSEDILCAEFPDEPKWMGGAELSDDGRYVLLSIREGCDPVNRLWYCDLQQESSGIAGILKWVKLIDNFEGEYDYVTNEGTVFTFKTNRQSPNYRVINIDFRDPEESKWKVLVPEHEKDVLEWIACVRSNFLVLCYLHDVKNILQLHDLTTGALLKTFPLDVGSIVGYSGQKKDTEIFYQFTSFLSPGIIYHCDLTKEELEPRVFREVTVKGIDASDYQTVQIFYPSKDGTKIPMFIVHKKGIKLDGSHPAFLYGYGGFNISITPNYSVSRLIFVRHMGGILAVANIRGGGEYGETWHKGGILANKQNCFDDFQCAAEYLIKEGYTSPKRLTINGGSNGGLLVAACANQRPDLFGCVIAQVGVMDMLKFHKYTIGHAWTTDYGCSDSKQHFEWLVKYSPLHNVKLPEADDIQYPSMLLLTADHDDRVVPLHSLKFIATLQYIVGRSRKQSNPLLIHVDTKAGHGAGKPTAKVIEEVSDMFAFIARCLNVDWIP
# From the text: Beneath Table 1 presents measured affinities to FAP and PREP for the inventive precursor compounds 1-4 and reference compound 5 as well as the original FAP inhibitor UAMC1110 as the current gold standard.
# [4] = molecular target: T1, FAP; experiment: Affinity to FAP (IC50); format: biochemical; conditions: for affinity to FAP, in words: compared with reference (F) and gold standard (G); for S = PREP IC50/FAP IC50: selectivity FAP over PREP; for SF = S relative to UAMC1110: selectivity factor relative to UAMC1110; for selectivity for FAP over PREP, in words: relative to (G) UAMC1110
# DPP4, sequence (P27487 whole entry): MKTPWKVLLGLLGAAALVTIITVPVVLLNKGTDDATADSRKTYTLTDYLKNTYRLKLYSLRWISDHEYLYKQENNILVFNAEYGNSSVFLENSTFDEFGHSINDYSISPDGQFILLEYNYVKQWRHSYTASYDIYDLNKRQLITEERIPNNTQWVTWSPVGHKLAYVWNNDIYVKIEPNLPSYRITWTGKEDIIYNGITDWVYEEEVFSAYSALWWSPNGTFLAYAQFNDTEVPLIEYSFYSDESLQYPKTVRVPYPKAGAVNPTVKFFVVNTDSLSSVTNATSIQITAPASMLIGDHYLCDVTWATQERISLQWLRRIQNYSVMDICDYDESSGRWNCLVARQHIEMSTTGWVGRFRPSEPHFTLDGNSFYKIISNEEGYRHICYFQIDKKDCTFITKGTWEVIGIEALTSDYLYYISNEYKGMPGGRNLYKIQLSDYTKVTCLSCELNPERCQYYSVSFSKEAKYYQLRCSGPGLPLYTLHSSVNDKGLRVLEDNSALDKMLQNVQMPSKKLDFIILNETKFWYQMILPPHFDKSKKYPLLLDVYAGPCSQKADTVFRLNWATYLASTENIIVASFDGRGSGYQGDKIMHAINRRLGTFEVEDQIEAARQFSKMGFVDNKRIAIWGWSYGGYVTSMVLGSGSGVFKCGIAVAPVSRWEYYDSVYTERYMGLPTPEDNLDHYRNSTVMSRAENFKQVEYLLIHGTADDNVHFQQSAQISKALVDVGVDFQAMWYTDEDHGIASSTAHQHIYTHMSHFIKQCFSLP
SMILES,FAP affinity [1],DPP4 affinity [2],IC50 [3] [nM],"binding to off-target PREP, in words [3]",IC50 [4] [nM],"affinity to FAP, in words [4]",S = PREP IC50/FAP IC50 [4],SF = S relative to UAMC1110 [4],"selectivity for FAP over PREP, in words [4]"
"N#C[C@@H]1CC(F)(F)CN1C(=O)CNC(=O)c1ccnc2ccccc12 [(G), (S)-N-(2-(2-cyano-4,4-difluoropyrrolidin-1-yl)-2-oxoethyl)quinoline-4-carboxamide]",low nM range,μM range,–,–,–,–,–,–,–
"CN(CC(=O)O)C1(CCCCC(=O)N2CCN(CC(=O)NCCCCOc3ccc4nccc(C(=O)NCC(=O)N5CC(F)(F)C[C@H]5C#N)c4c3)CC2)CN(CC(=O)O)CCN(CC(=O)O)C1 [Compound (B), (S)-2,2′-(6-((carboxymethyl)(methyl)amino)-6-(5-(4-(2-((4-((4-((2-(2-cyano-4,4-difluoropyrrolidin-1-yl)-2-oxoethyl)carbamoyl)quinolin-6-yl)oxy)butyl)amino)-2-oxoethyl)piperazin-1-yl)-5-oxopentyl)-1,4-diazepane-1,4-diyl)diacetic Acid]",–,–,1500 ± 300,comparable to (F) and (G),0.27 ± 0.01,higher affinity to FAP than reference compound (F) and the UAMC1110 gold standard (G),5.6 × 10^3,1.3,–
"CN(CC(=O)O)C1(CCCCC(=O)NCCCCOc2ccc3nccc(C(=O)NCC(=O)N4CC(F)(F)C[C@H]4C#N)c3c2)CN(CC(=O)O)CCN(CC(=O)O)C1 [Compound (A), (S)-2,2′-(6-((carboxymethyl)(methyl)amino)-6-(5-((4-((4-((2-(2-cyano-4,4-difluoropyrrolidin-1-yl)-2-oxoethyl)carbamoyl)quinolin-6-yl)oxy)butyl)amino)-5-oxopentyl)-1,4-diazepane-1,4-diyl)diacetic Acid]",–,–,6400 ± 400,reduced binding to off-target PREP compared to reference (F) and (G),0.27 ± 0.02,higher affinity to FAP than reference compound (F) and the UAMC1110 gold standard (G),23.7 × 10^3,5.6,six times that of (G)
"CN(CC(=O)NCCCCOc1ccc2nccc(C(=O)NCC(=O)N3CC(F)(F)C[C@H]3C#N)c2c1)[C@H]1CCN(C(=O)CCCCC2(N(C)CC(=O)O)CN(CC(=O)O)CCN(CC(=O)O)C2)C1 [(E), 2,2′-(6-((carboxymethyl)(methyl)amino)-6-(5-((S)-3-((2-((4-((4-((2-((S)-2-cyano-4,4-difluoropyrrolidin-1-yl)-2-oxoethyl)carbamoyl)quinolin-6-yl)oxy)butyl)amino)-2-oxoethyl)(methyl)amino)pyrrolidin-1-yl)-5-oxopentyl)-1,4-diazepane-1,4-diyl)diacetic Acid]",–,–,2600 ± 300,reduced binding to off-target PREP compared to reference (F) and (G),0.31 ± 0.02,higher affinity to FAP than reference compound (F) and the UAMC1110 gold standard (G),8.4 × 10^3,2.0,twice that of (G)
"CN(CC(=O)O)C1(CCCCC(=O)N[C@H]2CCN(CC(=O)NCCCCOc3ccc4nccc(C(=O)NCC(=O)N5CC(F)(F)C[C@H]5C#N)c4c3)C2)CN(CC(=O)O)CCN(CC(=O)O)C1 [(D), 2,2′-(6-((carboxymethyl)(methyl)amino)-6-(5-(((S)-1-(2-((4-((4-((2-((S)-2-cyano-4,4-difluoropyrrolidin-1-yl)-2-oxoethyl)carbamoyl)quinolin-6-yl)oxy)butyl)amino)-2-oxoethyl)pyrrolidin-3-yl)amino)-5-oxopentyl)-1,4-diazepane-1,4-diyl)diacetic Acid]",–,–,3300 ± 200,reduced binding to off-target PREP compared to reference (F) and (G),0.28 ± 0.02,higher affinity to FAP than reference compound (F) and the UAMC1110 gold standard (G),11.8 × 10^3,2.8,three times higher than that of (G)
